Drawing on patent US9458172B2, “Pyridinyl and pyrimidinyl sulfoxide and sulfone derivatives” (priority 2012, dated 2016), this text covers IC50 for 13 molecules.

One experiment has as its system A2780 cells. As to the kind of experiment: In-Vitro Cell Proliferation Assay (SRB). The note with it: Homo sapiens, A2780, 72 h, read-out: Cell Proliferation (IC50).
With `CCCn1cc(S(=O)(=O)c2ccc(CNC(=O)c3cc4ccncc4o3)nc2)cn1` [Example 61, Furo[2,3-c]pyridine-2-carboxylic acid [5-(1-propyl-1H-pyrazole-4-sulfonyl)-pyridin-2-ylmethyl]-amide], the IC50 stood at 5.3 nM.
Still for that read-out and setting: in the case of `O=C(NCc1ncc(S(=O)(=O)c2ccccc2)cn1)c1cc2ccncc2o1` [Example 11, Furo[2,3-c]pyridine-2-carboxylic acid (5-benzenesulfonyl-pyrimidin-2-ylmethyl)-amide] it was 314 nM.

Staying with this experiment, now noted: Homo sapiens, A2780, 72 h, read-out: Cell Proliferation (IC50), A2780 cells, 72 h, sulforhodamine B.
On to `CCn1cc(S(=O)(=O)c2ccc(CNC(=O)c3cc4ccncc4o3)nc2)cn1` [Example 176, N-[[5-(l-ethylpyrazol-4-yl)sulfonyl-2-pyridyl]methyl]furo[2,3-c]pyridine-2-carboxamide], for which the IC50 is 58.8 nM.
The same measure, in the same setting: in the case of `O=C(NCc1ccc(S(=O)(=O)c2ccc(N3CCOCC3)cc2)cn1)N1Cc2ccncc2C1` [Example 97, 1,3-Dihydro-pyrrolo[3,4-c]pyridine-2-carboxylic acid [5-(4-morpholin-4-yl-benzenesulfonyl)-pyridin-2-ylmethyl]-amide] it was 4.23 nM; in that of `CCCn1cc(S(=O)(=O)c2ccc(CNC(=O)N3Cc4ccncc4C3)nc2)cn1` [Example 140, N-[[5-(1-propylpyrazol-4-yl)sulfonyl-2-pyridyl]methyl]-1,3-dihydropyrrolo[3,4-c]pyridine-2-carboxamide], 37.2 nM.
On the same count and under the same terms, under `O=C(NCc1ccc(S(=O)(=O)c2cc(F)cc(N3CCOCC3)c2)cn1)c1cc2ccncc2o1` [Example 88, Furo[2,3-c]pyridine-2-carboxylic acid [5-(3-fluoro-5-morpholin-4-yl-benzenesulfonyl)-pyridin-2-ylmethyl]-amide] stands 2 nM; under `O=C(NCc1ccc(S(=O)(=O)C2CCN(C3COC3)CC2)cn1)c1cc2ccncc2o1` [Example 103, Furo[2,3-c]pyridine-2-carboxylic acid [5-(1-oxetan-3-yl-piperidine-4-sulfonyl)-pyridin-2-ylmethyl]-amide], 38.9 nM.
On the same count and under the same terms, under `O=C(NCc1ccc(S(=O)(=O)c2cc(F)cc(F)c2)cn1)c1cc2ccncc2o1` [Example 5, Furo[2,3-c]pyridine-2-carboxylic acid [5-(3,5-difluoro-benzenesulfonyl)-pyridin-2-ylmethyl]-amide] stands 5.2 nM; under `O=C(NCc1ccc(S(=O)(=O)c2cccc(OC(F)(F)F)c2)cn1)c1cnc2[nH]ncc2c1` [Example 19, 1H-Pyrazolo[3,4-b]pyridine-5-carboxylic acid [5-(3-trifluoromethoxy-benzenesulfonyl)-pyridin-2-ylmethyl]-amide], 28.3 nM.
On to `O=C(NCc1ccc(S(=O)(=O)c2cccc(OC(F)(F)F)c2)cn1)c1cc2cnccc2[nH]1` [Example 21, 1H-Pyrrolo[3,2-c]pyridine-2-carboxylic acid [5-(3-trifluoromethoxy-benzenesulfonyl)-pyridin-2-ylmethyl]-amide], for which the IC50 was 10.2 nM.
On the same count and under the same terms, under `COc1cc(F)cc(S(=O)(=O)c2ccc(CNC(=O)c3cnc4[nH]ncc4c3)nc2)c1` [Example 144, N-[[5-(3-fluoro-5-methoxy-phenyl)sulfonyl-2-pyridyl]methyl]-1H-pyrazolo[3,4-b]pyridine-5-carboxamide] stands 41.5 nM; under `CCN(C)c1ncc(S(=O)(=O)c2ccc(CNC(=O)c3cc4ccncc4o3)nc2)s1` [Example 146, N-[[5-[2-[ethyl(methyl)amino]thiazol-5-yl]sulfonyl-2-pyridyl]methyl]furo[2,3-c]pyridine-2-carboxamide], 3.03 nM.

The experiment is the same for the next values; noted with them: read-out: Cell Proliferation (IC50); A2780 cells, 72 h, sulforhodamine B.
For `CN1CCN(c2ccc(S(=O)(=O)c3ccc(CNC(=O)c4cc5ccncc5o4)nc3)cn2)CC1` [Example 113, N-[[5-[[6-(4-methylpiperazin-1-yl)-1-pyridyl]sulfonyl]-2-pyridyl]methyl]furo[2,3-c]pyridine-2-carboxamide], the IC50 stood at 0.488 nM.
